In patent publication US5134073A, “Microbiologically produced N-acetyl-2,3-didehydroleucine acylase” (Degussa Aktiengesellschaft, priority 1989, dated 1992):
Values joined by “and” are separate entries in the source; they are usually repeats but may differ in a detail not shown here. Equal entries are not always repeated.

Key:
Zoogloea ramigera ABI 1 = experiment: Induction of N-acetyldehydroleucine acylase in agitated cultures, changing of the inductor; assay type: cell-based; settings: inductor 3 g/l; for Acylase activity after 60 hours of incubation as a function of the inductor: agitated culture, pH 7
Experimental: All raw extracts were tested at least with N-acetyldehydroleucine and N-acetyldehydroisoleucine but, in most cases, also with N-acetyldehydrovaline. […] The enzymatic reaction was stopped in the batches incubated at 30° C. by adding 0.25 ml color reagent (1 g/l 2,4-dinitrophenyl hydrazine in 2 N HCl). After further incubation at 30° C. for 10 minutes with N-acetyldehydroleucine as substrate or 25 minutes with the isoleucine or valine derivative, 1.5 ml 2,5 N NaOH was added.
The keto acid released by the enzymatic hydrolysis forms, together with the 2,4-dinitrophenyl hydrazine, a Schiff's base colored red in the alkaline whose absorption was measured in a spectral photometer at 442 nm against a batch without N-acetyldehydroamino acid (=enzyme blank). A blank reading was deducted from these extinction values which blank reading is obtained if the extinction value of a batch only with buffer (=buffer blank) is deducted from that of a batch with buffer and N-acetyldehydroamino acid but without raw extract (=substrate blank). The concentration of the product produced was determined with a calibrated reference for the corresponding keto acid. The enzyme activity is indicated in international units. One unit (U) corresponds to an amount of 1 μmole released keto acid per minute.
Different substances were added in a concentration of 3 g/l as inductors into agitated cultures with a medium of mineral salt solution (cf. Example 1) with 0.5 g/l yeast extract and 0.5 g/l peptone at pH 7. The technology for agitated cultures is described in Example 1 a).

[1] = tested on: N-acetyldehydroleucine acylase; experiment: Acylase activity versus concentration of N-acetyldehydroamino acids (kinetic data); assay type: biochemical, Zoogloea ramigera
Experimental: The activity of the acylase was determined under standard conditions (cf. Example 8a)) with various N-acetyldehydroamino acids in concentrations of 0.1 to 300 mM. A second series of measurements with N-acetyldehydroleucinein the above-indicated concentration range was placed in 0.1 M tris/phosphoric acid buffer.
Reaction conditions: 0.1 M glycine, pH 9, 30° C.
Adaptation to the equation v = Vmax. · S/(KM + S +

[2] = tested on: N-acetyldehydroleucine acylase; experiment: Hydrolysis of other compounds by the acylase (TLC / amino acid analyzer); assay type: biochemical, Zoogloea ramigera
Experimental: A qualitative check was performed for 81 compounds to see whether they are accepted as substrate by the acylase. The test batches contained:
After 16 and 40 hours incubation at 25° C., specimens were taken from the batches, most of which specimens were analyzed in comparison to substrate standards by means of thin-layer chromatography (70% (v/v) ethanol as mobile solvent). The detection took place with ninhydrin spray reagent. A few specimens were tested in addition or alternatively with the amino acid analyzer.
The amino acids produced from the amino acid amides by means of the action of acylase were detected quantitatively with the amino acid analyzer.

ADL acylase = experiment: Influence of glycine on the reaction rate; assay type: biochemical, Zoogloea ramigera
Experimental: The reaction of glycine in 0 to 1.2 molar concentration dissolved in 0.1 M tris/HCl buffer was determined under standard conditions (example 8a).

[3] = tested on: N-acetyldehydroleucine acylase; experiment: Hydrolysis of hydantoins by the acylase; assay type: biochemical, Zoogloea ramigera; settings: 25 mM substrate, 1 U/ml acylase, tris/phosphoric acid pH 9, 11.5 hours at 30° C.; ADL = 100%
Experimental: The test batches for the hydrolysis of hydantoins had the following composition:
25 mM substrate or buffer
50 mM tris/phosphoric acid buffer
Isopropylhydantoin, hydantoic acid and dihydrouracil were used as substrates. After 11.5 hours at 30° C., 175 μl 12% (w/v) trichloroacetic acid and 25 μl analytical reagent (10 % (w/v) […] in 6 N HCl) were added, precipitated protein centrifuged off in an Eppendorf table centrifuge and the absorption in the supernatants measured at 450 nm.

% Vmax ([1]; glycine, 0.1 M, pH 9, 30° C.) | Km ([1]; glycine, 0.1 M, pH 9, 30° C.) | Substrate specificity: hydrolysis by the acylase [2] | Structure (SMILES) | Acylase activity after 60 hours of incubation as a function of the inductor (Zoogloea ramigera ABI 1) | also measured
46% | 2.62 mM | hydrolyzes | CC(=O)NC(=Cc1ccccc1)C(=O)O [ACA, 2-acetylamino cinnamic acid] | 0.016 U/mg | Induction capacity (Zoogloea ramigera ABI 1): only slightly active
 |  |  | NCC(=O)O [Glycine, glycine] |  | Influence of activators on substrate splitting (ADL acylase): accelerates the substrate splitting as a function of the concentration; EC50 (ADL acylase; 0.1 M tris/HCl buffer, calculation according to Ingami and Murachi, read-out: Glycine concentration necessary for one-half the maximum reaction acceleration): 90 mM
14% | 5.77 mM | hydrolyzes | CCC(C)=C(NC(C)=O)C(=O)O [ADI, N-acetyl-2,3-didehydroisoleucine] | 0.172 U/mg | 
 |  |  | CC(=O)NC(C(=O)O)C(C)C (racemic) [Ac-D,L-valine] | 0.031 U/mg | 
 |  |  | CC(=O)NC(Cc1ccccc1)C(=O)O (racemic) [Ac-D,L-phenylalanine] | 0.031 U/mg | 
 |  |  | O=C1CCNC(=O)N1 [Dihydrouracil] |  | rel. activity (%) [3]: 0%
 |  |  | CC(C)C1NC(=O)NC1=O (stereo not shown) [Isopropy hydantoin] |  | rel. activity (%) [3]: 0%
 |  |  | CC[C@H](C)[C@H](NC(C)=O)C(=O)O [Ac-L-isoleucine] | 0.039 U/mg | 
23% | 20.9 mM | hydrolyzes | CC(=O)NC(C(=O)O)=C(C)C [ADV, N-acetyl-2,3-didehydrovaline] | 0.121 U/mg | 
100% | 4.5 mM and 4.53 mM |  | CC(=O)NC(=CC(C)C)C(=O)O [ADL, N-acetyl-2,3-didehydroleucine] | 0.222 U/mg | Induction capacity (Zoogloea ramigera ABI 1): highest induction capacity; Km ([1]; glycine, 0.1 M, pH 9, 30° C., listed as N-acetyl-2,3-didehydroleucine): 4.5 mM; % Vmax ([1]; tris-phosphoric acid 0.1 M): 62%; Km ([1]; tris-phosphoric acid 0.1 M): 7.01 mM; rel. activity (%) ([2]; 50 mM test substrate, 0.1 M tris/HCl pH 9, 25° C., hydrolysis rate with N-acetyldehydroleucine = 100%): 100.0%
